How the values were obtained:
[1] = target: T1, human GRP receptor (BB2) (Homo sapiens, UniProt P30550); assay: BB2 binding assay ([125I][Tyr4]bombesin displacement, CHO-K1 membranes); conditions: Table 1, human GRP receptor binding affinity; Ki from IC50 by Cheng-Prusoff; read-out: GRP Kj
T1 construct: expressed in transfected cells; membranes prepared from the cells
Outline: (§1)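 Competition against <0.1 nM [125I][Tyr4]bombesin, 60 min for the NMB receptor and 90 min for the GRP receptor, using homogenised membranes of human-receptor-expressing CHO-K1 cells in pH 7.4 Tris buffer. Bound label was filtered and gamma-counted, with 1 μM bombesin as nonspecific. Ki values came from IC50 via Cheng-Prusoff.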

[2] = target: T2, human NMB receptor (BB1) (Homo sapiens, UniProt P28336); assay: BB1 binding assay ([125I][Tyr4]bombesin displacement, CHO-K1 membranes); conditions: Table 1, human NMB receptor binding affinity; Ki from IC50 by Cheng-Prusoff; read-out: NMB Ki
T2 construct: expressed in transfected cells; membranes prepared from the cells
Outline: as §1

[3] = test system: female rat sexual proceptivity; assay: Female rat sexual proceptivity test (time investigating male vs female stimulus); type: in vivo
Description: (§2) Ovariectomised adult female Sprague Dawley rats (180-200 g, from Charles River) were housed in groups of 6 in a reversed lighting system of 12 h light:dark (lights off 7.00-19.00 h). Two weeks after ovariectomy they were used for sexual activity tests. The experiments started at least 5 h into the dark period.
Tests were carried out in a circular arena of 90 cm diameter, surrounded by a 30 cm high wall. Two small cages with wire-mesh front (15×15 cm) are fixed into the wall such that the front of the cage is <> with the wall and the 2 cages are opposite each other. They contained two stimuli animals: an intact sexually experienced male and a receptive female (ovariectomised, primed with 5 μg oestradiol benzoate dissolved in corn oil and injected subcutaneously 48 hours before the test and with 0.5 mg of progesterone four hours before the test). Sexually naive test and control animals were used. Forty eight hours before the tests, both the test and control animals were primed with 5 μg oestradiol benzoate. For animals used as positive controls, progesterone (0.5 mg/0.1 ml) was dissolved in corn oil and administered subcutaneously (s.c.), 4 h before the test. Test and control animals were introduced one at a time for 10 minute periods into the arena. During the 10 min test, the time that the test or positive control animal spent investigating each stimulus animal was noted. The arena was thoroughly cleaned between animals. The position of the male/female stimuli boxes was randomised between animals, in order to avoid place preference. The difference in the percentage of time spent investigating the male minus the female stimuli was calculated, out of the total time spent investigating stimuli animals.
Compound (1) was dissolved in 100% β-cyclodextrin and then diluted with saline to a final solution of 50% 2-hydroxypropyl-β-cyclodextrin. It was administered intraperitoneally (i.p.) at doses of 3 and 10 mg/kg, in a dosing volume of 1 ml/kg, 1 h before tests. Progesterone (0.5 mg/0.1 ml) was dissolved in corn oil and administered subcutaneously (s.c.), 4 h before test, as a positive control.
Ovariectomised adult female Sprague Dawley rats (180-200 g) were housed in groups of 5 in a reversed lighting system of 12 h light:dark (lights off 5.00-17.00 h). They were used for the experiments at least two weeks after ovariectomy. Forty eight hours before tests, the animals were primed with oestradiol benzoate (5 μg/[…] in corn oil, s.c.). On day 1, progesterone (0.5 mg/0.1 ml, in corn oil, s.c.) was administered to one of the groups 4 h before tests, as a positive control. Compound (1) (15 mg/kg, i.p.) was administered in 50% 2-hydroxypropyl-β-cyclodextrin, 1 h before tests. The test lasted 10 minutes and was carried out as described before. The difference in the percentage of time spent investigating the male minus the female stimuli was calculated, out of the total time spent investigating stimuli animals. Animals were submitted to a test on day 1 and on day 15. From day 2 to 14 the Compound (1) group received a daily injection of the compound (15 mg/kg, i.p.), while both the vehicle and the progesterone groups received an injection of vehicle. On day 15 the test took place again, as described for day 1.
Ovariectomised female rats (Sprague Dawley, obtained from Charles River, UK) were stereotaxically implanted (coordinates 0.89 mm behind Bregma, 1.3 mm lateral and 2.5 mm vertical) with stainless steel cannulae (6 mm long, O.D. 0.75 mm), held in place with dental cement. Animals were housed in groups of three and returned to a reversed lighting system of 12 h light:dark (lights off 5.00-17.00 h). Correct placement of the cannulae was assessed post-mortem. Rats were used for tests two weeks after ovariectomy (one week after cannulation). The experiments started at least 5 h into the dark period. […]

[4] = test system: female rat sexual receptivity; assay: Female rat sexual receptivity test (lordosis quotient); type: in vivo; conditions: for lordosis quotient (LQ) vs LQ before administration: Compound (2) 10-100 mg/kg oral in PEG200, 1 h, quinelorane 6.25 μg/kg s.c., 90 min (FIG. 21)
Description: as §2
Compound (1) was dissolved in 100% β-cyclodextrin and then diluted with saline to a final solution of 50% 2-hydroxypropyl-β-cyclodextrin. It was administered intraperitoneally (i.p.) at a dose of 10 mg/kg, in a dosing volume of 1 ml/kg. Quinelorane (6.25 μg/kg) was dissolved in water and administered s.c. as positive control. Forty eight hours before testing, ovariectomised female rats (as described above), were primed with 5 μg oestradiol benzoate dissolved in corn oil and injected subcutaneously. […] The females were placed with a series of vigorous male rats and subjected to 10 mounts.
The lordotic response of the animal was recorded and expressed as a percentage of the mounts (i.e. lordosis quotient, LQ), as previously described. Animals showing LQ<20 were considered non-receptive and were included in the study. Each rat was tested prior to administration of the compound and then tested similarly post-injection. The pre-treatment times were 1 h for Compound (1) and vehicle (50% β-cyclodextrin, i.p.) or 90 min for quinelorane.
The above compound was dissolved in PEG200 vehicle and administered orally. Quinelorane dihydrochloride (LY 163,502, 6.25 μg/kg) was dissolved in water and administered subcutaneously (s.c.), as a positive control. Both compounds were administered in a 1 ml/kg volume.
Forty eight hours before tests, the animals were primed with 5 μg oestradiol benzoate (Sigma Chemical. Co. Ltd., UK) dissolved in corn oil and injected subcutaneously. The females were placed with a series of vigorous male rats and subjected to 10 mounts. The lordotic response of the animal was recorded and expressed as a percentage of the mounts (i.e. lordosis quotient, LQ). […] Animals showing higher LQ were not included in the study. […]

[5] = test system: female rat sexual proceptivity (NMB-inhibited); assay: Inhibition of female rat proceptivity by i.c.v. NMB and its antagonism; type: in vivo; conditions: progesterone 0.5 mg s.c. 4 h; NMB 100 ng i.c.v. 10 min before test in progesterone-treated rats; Compound (1) 15 mg/kg i.p. 1 h before NMB (FIG. 5)
Description: Ovariectomised female rats (Sprague Dawley, obtained from Charles River, UK) were stereotaxically implanted (coordinates 0.89 mm behind Bregma, 1.3 mm lateral and 2.5 mm vertical) with stainless steel cannulae (6 mm long, O.D. 0.75 mm), held in place with dental cement. Animals were housed in groups of three and returned to a reversed lighting system of 12 h light:dark (lights off 5.00-17.00 h). Correct placement of the cannulae was assessed post-mortem. Rats were used for tests two weeks after ovariectomy (one week after cannulation). The experiments started at least 5 h into the dark period. Forty eight hours before tests, the animals were primed with 5 μg oestradiol benzoate (OB) (s.c, in corn oil) and adapted to the apparatus (in the absence of stimuli animals) for 10 min on 2 consecutive days prior testing. The 10 min test was carried out as previously described. The difference in the percentage of time spent investigating male minus female was calculated, out of the total time spent investigating stimuli.
Progesterone (Prog, 0.5 mg/0.1 ml) was dissolved in corn oil and administered subcutaneously (s.c.), 4 h before test, to induce proceptive behaviour. Compound (1) (15 mg/kg, i.p.) was dissolved in 50% 2-hydroxypropyl-β-cyclodextrin in saline and administered 1 h before the i.c.v. administration. Neuromedin B was obtained from Bachem, UK. It was dissolved in isotonic saline and administered i.c.v. over a 30 sec period, with the aid of a pump set to deliver a flow of 10 μl/min, 10 min before tests. The dosing volume was 5 μl/rat. Each rat received a total amount of 100 ng.

[6] = Plasma sexual hormone levels in ovariectomised female rats (radioimmunoassay); type: in vivo, rat; conditions: Compound (1) 3-10 mg/kg i.p. 1 h, progesterone 0.5 mg s.c. 4 h before blood collection
Description: Ovariectomised adult female Sprague Dawley rats (180-200 g) were housed in groups of 6 in a reversed lighting system of 12 h light:dark (lights off 7.00-19.00 h). They were used for the experiments at least two weeks after ovariectomy. Forty eight hours before tests, the animals were primed with oestradiol benzoate (5 μg/0.1 ml in corn oil, s.c.). Progesterone (0.5 mg/0.1 ml, in corn oil, s.c.) was administered 4 h before blood collection, as a positive control. Compound (1) (3-10 mg/kg, i.p.) was administered in 50% 2-hydroxypropyl-β-cyclodextrin, 1 h prior to blood collection. Blood was collected from the trunk, after decapitation. It was immediately centrifuged (3500 r.p.m., 4° C., 5 min) and the plasmas frozen until assayed for hormonal content, using commercially available radioimmunoassay kits (^125I-labelled hormones) for oestradiol, progesterone, LH, FSH and prolactin.

T2 sequence (P28336 whole entry): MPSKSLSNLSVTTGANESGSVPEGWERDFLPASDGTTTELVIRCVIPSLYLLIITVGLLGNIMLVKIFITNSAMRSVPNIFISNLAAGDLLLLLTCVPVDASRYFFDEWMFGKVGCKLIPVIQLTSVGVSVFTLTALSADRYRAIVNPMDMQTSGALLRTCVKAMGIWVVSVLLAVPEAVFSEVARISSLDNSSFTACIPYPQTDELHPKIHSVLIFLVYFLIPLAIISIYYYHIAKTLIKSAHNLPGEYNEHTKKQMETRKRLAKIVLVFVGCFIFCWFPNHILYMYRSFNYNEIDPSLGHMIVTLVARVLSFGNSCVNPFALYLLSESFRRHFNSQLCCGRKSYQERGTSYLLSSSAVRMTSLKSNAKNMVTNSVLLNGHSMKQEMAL
T1 sequence (P30550 whole entry): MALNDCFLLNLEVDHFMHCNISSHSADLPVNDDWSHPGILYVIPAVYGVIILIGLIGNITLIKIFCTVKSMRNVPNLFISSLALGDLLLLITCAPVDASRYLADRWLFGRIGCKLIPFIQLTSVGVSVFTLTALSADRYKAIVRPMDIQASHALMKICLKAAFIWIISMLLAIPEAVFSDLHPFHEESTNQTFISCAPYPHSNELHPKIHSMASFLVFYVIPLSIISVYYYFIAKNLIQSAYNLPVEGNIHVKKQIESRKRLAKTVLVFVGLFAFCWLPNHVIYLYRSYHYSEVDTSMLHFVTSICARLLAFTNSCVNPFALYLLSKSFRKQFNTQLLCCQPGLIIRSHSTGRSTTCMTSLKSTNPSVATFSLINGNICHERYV

SMILES	Ki [1] [nM]	Ki [2] [nM]	percentage of time spent investigating the male stimulus ([3]; oral, 30-100 mg/kg in PEG 200, 1 h before test (FIG. 19))	percentage of time spent investigating the male stimulus ([3]; p.o., 3-30 mg/kg in 0.5% methyl cellulose, 1 h before test (FIG. 20))	lordosis quotient (LQ) vs LQ before administration [4]	MED for increase of lordosis quotient (LQ) ([4]; single oral administration, 10-100 mg/kg in PEG200, 1 h after administration) [mg/kg]	melting point [°C]	proceptivity (percentage of time investigating male minus female stimulus) [5]	proceptivity on day 1 vs vehicle ([3]; Compound (1) 15 mg/kg i.p. 1 h before test, progesterone 0.5 mg s.c. 4 h before test (FIG. 3))	plasma levels of progesterone ([6]; vs vehicle (FIG. 6))	plasma levels of LH ([6]; vs vehicle (FIG. 9))
COc1ccc(C2(CNC(=O)[C@](C)(Cc3c[nH]c4ccccc34)Nc3nc(-c4ccc([N+](=O)[O-])cc4)co3)CCCCC2)nc1 [Example 9, (S)-3-(1H-Indol-3-yl)-N-[1-(5-methoxy-pyridin-2-yl)-cyclohexylmethyl]-2-methyl-2-[4-(4-nitro-phenyl)-oxazol-2-ylamino]-propionamide]	24	4	dose-dependently (30-100) increased the percentage of time spent investigating the male stimulus	dose-dependently (3-30 mg/kg) increased the percentage of time spent investigating the male stimulus	dose-dependently (10-100 mg/kg) increased the LQ	100	100 to 105	–	–	–	–
CC(=O)[C@H]1CC[C@H]2[C@@H]3CCC4=CC(=O)CC[C@]4(C)[C@H]3CC[C@]12C [progesterone, reference compound]	–	–	–	–	–	–	–	increased the percentage of time spent investigating the male stimulus	stimulatory effect on proceptivity	significant increase in the progesterone plasma levels	significant decrease in LH plasma levels
CCCN1CCC[C@@H]2Cc3nc(N)ncc3C[C@H]21 [quinelorane, reference compound]	–	–	–	–	significantly (P<0.01) increased the LQ	–	–	–	–	–	–
